These results are taken from ChEMBL document CHEMBL1201862, “PubChem BioAssay data set” (2004).

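Exposure lasted 48 hours, with cells grown in 96-well plates and compounds tested at five concentrations. At the GI50, growth is halved.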 Calls of active or inactive are those of the source. Rule as the data show it: active = GI50 up to about 1.1 µM and inactive = higher.

What all share (test): DTP human tumour cell line panel, 48 h
Assay [1] concerns HOP-18.
For assay [2], the system named is NCI-H522.
Assay [3] relates to COLO 205.
Assay [4] deals with OVCAR-4.
The test system of assay [5] is A498.
Assay [6] deals with SF-295.
Assay [7] deals with KM-20L2.
Assay [8] deals with MCF7.
The subject of assay [9] is XF498.
Assay [10] relates to UACC-257.
Assay [11] has as its system DMS-114.
Assay [12] has as its system RXF 393.
Assay [13] concerns NCI/ADR-RES.
In assay [14] the test system is LXFL 529.

`CCCC[S+]([O-])CC(CO)NC(=O)/C=C/c1c(C)[nH]c(=O)[nH]c1=O` (centres undefined): the GI50 in assay [1] is 31.6 µM (inactive); in [2], 5.77 µM (inactive); in [3], 16.7 µM (inactive); in assay [4], 0.203 µM (active); in assay [5], 7.8 µM (inactive); in assay [6], 8.38 µM (inactive). For the same compound, the GI50 was 5.64 µM (inactive) in assay [7]; 8.67 µM (inactive) in assay [8]; 4.18 µM (inactive) in assay [9]; 11 µM (inactive) in assay [10]; 6.41 µM (inactive) in [11]; 11 µM (inactive) in [12]. The GI50 in [13] is 12.4 µM (inactive).

With `S=c1sc2c(s1)SC(c1ccccc1)CS2` (centres undefined), the GI50 is > 100 µM (inactive) in assay [1]; > 100 µM (inactive) in assay [2]; > 100 µM (inactive) in assay [3]; 20.4 µM (inactive) in assay [4]; > 100 µM (inactive) in [5]; 25.8 µM (inactive) in assay [6]. Further, the GI50 in [7] was > 100 µM (inactive); in assay [8] it was > 100 µM (inactive); in assay [10] it was > 21.7 µM (inactive); in assay [11], > 47.9 µM (inactive); in [12], 25.1 µM (inactive); in assay [13], > 52 µM (inactive).

Consider `COc1cc(/N=N\c2cccc(S(=O)(=O)O)c2)ccc1/N=N\c1ccc(/C=C/c2ccc(-n3on3-c3ccc(/C=C/c4ccc(/N=N/c5ccc(/N=N\c6cccc(S(=O)(=O)O)c6)cc5OC)cc4S(=O)(=O)O)c(S(=O)(=O)O)c3)cc2S(=O)(=O)O)c(S(=O)(=O)O)c1`, for which the GI50 in assay [1], in [2], in assay [3], in assay [4], in assay [5] and in [6] was > 100 µM (inactive) in each case. Besides, the GI50 was > 100 µM (inactive) in assay [7]; > 100 µM (inactive) in [8]; > 83 µM (inactive) in assay [9]; > 100 µM (inactive) in [10]; > 100 µM (inactive) in assay [11]; > 100 µM (inactive) in assay [12]. For the same compound, the GI50 in assay [13] is > 100 µM (inactive).

`COc1ccc([C@H]2c3cc4c(cc3OC(O)(CO)[C@H]2C(=O)O)OCO4)c(OC)c1.COc1ccc([C@H]2c3cc4c(cc3OC3(O)COC(=O)[C@@H]23)OCO4)c(OC)c1` (some centres undefined): the GI50 in assay [14], in assay [1], in assay [3], in assay [4], in assay [5] and in assay [6] was > 100 µM (inactive) in each case. The GI50 in assay [7], in [9], in assay [10], in assay [11] and in assay [12] was > 100 µM (inactive) in each case.

Consider `COc1ccc(/C(Cl)=C(\CN(C)C)c2ccc(OC)c(OC)c2)cc1OC`, for which the GI50 in [14], in assay [1], in assay [2], in assay [3], in [5] and in assay [6] was > 100 µM (inactive) each time. Besides, the GI50 is > 100 µM (inactive) in assay [7] and 19.8 µM (inactive) in assay [9].

For `N/C(=N\O)N/N=C\c1ccc(O)c(O)c1O`, the GI50 was > 100 µM (inactive) in assay [1]; 24.1 µM (inactive) in assay [2]; 12.9 µM (inactive) in assay [3]; 10.9 µM (inactive) in assay [4]; > 30.8 µM (inactive) in assay [5]; 12.2 µM (inactive) in assay [6]. Moreover, the GI50 is 26.7 µM (inactive) in [7]; 16.7 µM (inactive) in assay [8]; > 100 µM (inactive) in [9]; 63.7 µM (inactive) in assay [10]; 21.2 µM (inactive) in assay [11]; 18.9 µM (inactive) in [12]. Also, in assay [13], the GI50 is 19.5 µM (inactive).

For `CSc1nc(NC2OCC(OC(C)=O)C(OC(C)=O)C2OC(C)=O)c(/N=C(\C)C(C)=O)c(=O)[nH]1` (centres undefined), the GI50 in assay [14], in assay [1], in [3], in assay [4], in assay [5] and in assay [6] was > 100 µM (inactive) throughout. Further, the GI50 in [9], in assay [10], in [11] and in assay [12] was > 100 µM (inactive) each time.

With `COC(=O)C(C)NP(=O)(N1CC1)N1CC1` (centres undefined), the GI50 was > 100 µM (inactive) in assay [14]; > 100 µM (inactive) in [2]; > 100 µM (inactive) in assay [3]; > 100 µM (inactive) in assay [4]; > 100 µM (inactive) in assay [5]; 92.5 µM (inactive) in [6]. In addition, the GI50 was > 100 µM (inactive) in [7]; > 100 µM (inactive) in assay [9]; > 100 µM (inactive) in assay [10]; 66.4 µM (inactive) in [11]; > 100 µM (inactive) in [12].

In the case of `COc1cc(C2c3cc4c(cc3[C@@H](Nc3ccc(Oc5ccccc5)cc3)C3COC(=O)[C@H]23)OCO4)cc(OC)c1O` (some centres undefined), the GI50 in [1] is 4.47 µM (inactive); in assay [2], 2.25 µM (inactive); in [3], 1.5 µM (inactive); in assay [4] it was 7.11 µM (inactive); in assay [5] it was 1.24 µM (inactive); in assay [6], 1.27 µM (inactive). The GI50 in assay [7] was 1.17 µM (inactive); in assay [8], 0.4 µM (active); in [9] it was 5.26 µM (inactive); in assay [10] it was 1.22 µM (inactive); in assay [11], 0.597 µM (active); in assay [12], 1.29 µM (inactive). Besides, the GI50 in [13] was 9.02 µM (inactive).
